Data as given in US10344019B2 (priority 2010, dated 2019).
Read-outs that look alike come from different tables or passages of the source.

Assays:
Type in all cases: cell-based
[1] = tested on: HCV 1a RLuc cells (dicistronic genotype 1a H77 replicon, RLuc reporter); assay: microbe, parasite or virus in culture; conditions: Hepatitis C virus, read-out: 1a
Summary of the method: (§1)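 Renilla luciferase HCV replicon cells: dicistronic 1b Con1, 1a H77 or 2a JFH-1 replicons, or a JFH-1 chimera carrying J6 NS5A (M31 present). Compound in DMSO serial dilutions, 72 h incubation, then lysis and luciferase read. EC50 by non-linear regression.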

[2] = tested on: HCV 2a JFH-1 Rluc cells (dicistronic genotype 2a JFH-1 replicon, RLuc reporter); assay: microbe, parasite or virus in culture; conditions: Hepatitis C virus, read-out: 2a JFH
Summary of the method: as §1

[3] = tested on: HCV 2b Rluc cells (NS5A chimeric genotype 2a JFH-1 replicon with genotype 2b MD2b-1 NS5A gene, M31 present); assay: microbe, parasite or virus in culture; conditions: Hepatitis C virus, read-out: 2b
Summary of the method: (§2)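 Replicon cells stably carrying the listed RLuc-encoding dicistronic replicons were seeded and treated with DMSO serial dilutions of compound (10 mM stocks) diluted into culture medium. After 72 h, cells were lysed and Renilla luciferase activity measured. EC50 was derived by non-linear regression.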

[4] = tested on: HCV 3a RLuc cells (NS5A chimeric genotype 1b Con1 replicon with consensus genotype 3a NS5A gene); assay: microbe, parasite or virus in culture; conditions: Hepatitis C virus
Summary of the method: as §2

[5] = tested on: HCV 4a Rluc cells (NS5A chimeric genotype 1b Con1 replicon with genotype 4a NS5A gene); assay: microbe, parasite or virus in culture; conditions: Hepatitis C virus, read-out: 4a
Summary of the method: as §2

[6] = tested on: Q30R in genotype 1a NS5A, 1a Rluc replicon transfected into Huh-7 cured-51 cells; assay: HCV replicon assay, resistance mutant 1a Q30R; conditions: Hepatitis C virus, Huh-7, read-out: 1a Q30R
Method: Evaluation of cell-based anti-HCV activity: Antiviral potency (EC50) was determined using a Renilla luciferase (RLuc)-based HCV replicon reporter assay. To perform the assay for genotype 1 and 2a JFH-1, HCV 1b RLuc cells (harboring a dicistronic genotype 1b Con1 replicon that encodes a RLuc reporter), or HCV 1a RLuc cells (harboring a dicistronic genotype 1a H77 replicon that encodes a RLuc reporter), or HCV 2a JFH-1 Rluc cells (harboring a dicistronic genotype 2a JFH-1 replicon that encodes a RLuc reporter) were dispensed into 384-well plates. To perform the assay for genotype 2a (with M31 present) or 2b, HCV 2a Rluc or 2b Rluc cells (both with M31 present) harboring a dicistronic NS5A chimeric genotype 2a JFH-1 replicon that encodes a RLuc reporter and either genotype 2a J6 strain NS5A gene or genotype 2b MD2b-1 NS5A gene (based on Los Alamos HCV database isolates, both with M31 present) respectively, were dispensed into 384-well plates. To perform the assay for genotype 3 and 4, HCV 3a RLuc or 4a Rluc cells harboring a dicistronic NS5A chimeric genotype 1b Con1 replicon that encodes a RLuc reporter and either a consensus genotype 3a NS5A gene or genotype 4a NS5A gene (based on Los Alamos HCV database isolates) respectively, were dispensed into 384-well plates. Compounds were re-suspended in DMSO at a concentration of 10 mM and serially diluted in DMSO either manually or using an automated pipeting instrument. Serially diluted compounds were mixed with cell culture media and added to the seeded cells. […] 72 hours later, cells were lysed and Renilla luciferase activity quantified as recommended by the manufacturer (Promega-Madison, Wis.). Non-linear regression was performed to calculate EC50 values.
To determine the antiviral potency (EC50) against resistance mutants, resistance mutations, including M28T, Q30R, Q30H, L31M, and Y93C in genotype 1a NS5A and Y93H in genotype 1b NS5A, were introduced individually into either 1a Rluc or 1b Rluc replicons described above by site directed mutagenesis. Replicon RNA of each resistant mutant was transfected into Huh-7 cured-51 cells and antiviral potency was determined on these transfected cells as described above.

[7] = tested on: HCV 2a Rluc cells (NS5A chimeric genotype 2a JFH-1 replicon with genotype 2a J6 strain NS5A gene, M31 present); assay: HCV replicon reporter assay, genotype 2a J6 (M31 present); conditions: Hepatitis C virus, read-out: 2a J6
Summary of the method: as §1

[8] = tested on: HCV 1b RLuc cells (dicistronic genotype 1b Con1 replicon, RLuc reporter); assay: microbe, parasite or virus in culture; conditions: Hepatitis C virus, read-out: 1b (nM)
Summary of the method: as §1

[9] = read-out: 3a, genotype 3a replicon
[10] = genotype 2a JFH-1 RLuc replicon
[11] = read-out: 3a, genotype 3a NS5A chimeric replicon

Row | Structure (SMILES) | EC50 ([1]; genotype 1a replicon) [nM] | EC50 ([2]; genotype 2a JFH-1 replicon) [nM] | EC50 [3] [nM] | EC50 [4, 9] [nM] | EC50 [5] [nM] | EC50 [6] [nM] | EC50 [7] [nM] | EC50 ([1]; genotype 1a H77 RLuc replicon) [nM] | EC50 [8] [nM] | EC50 [2, 10] [nM] | EC50 [4, 11] [nM]
1 | COC(=O)N[C@H](C(=O)N1CCC[C@H]1c1ncc(-c2ccc3c(c2)COc2cc4c(cc2-3)CCc2nc([C@@H]3CCCN3C(=O)[C@H](NC(=O)OC)c3ccccc3)[nH]c2-4)[nH]1)C(C)C [Example 434] | 0.001 to 0.999 | 0.001 to 0.999 | 0.001 to 0.999 | 0.001 to 0.99 | 0.001 to 0.99 | 0.001 to 0.999 | 0.001 to 0.999 | – | – | – | –
2 | COC(=O)N[C@H](C(=O)N1CCC[C@H]1c1nc2c([nH]1)-c1cc3c(cc1CC2)-c1ccc(-c2cnc([C@@H]4CCCN4C(=O)[C@H](NC(=O)OC)c4ccccc4)[nH]2)cc1CO3)C(C)C [Example 435] | 0.001 to 0.999 | 0.001 to 0.999 | 0.001 to 0.999 | 0.001 to 0.99 | 0.001 to 0.99 | 0.001 to 0.999 | 0.001 to 0.999 | – | – | – | –
3 | COC(=O)N[C@H](C(=O)N1C[C@@H](COC(F)F)C[C@H]1c1nc2ccc3cc4c(cc3c2[nH]1)OCc1cc(-c2cnc([C@@H]3CCCN3C(=O)[C@H](NC(=O)OC)c3ccccc3)[nH]2)ccc1-4)C(C)C [Example 558] | – | – | 0.001 to 0.999 | – | 0.001 to 0.99 | 0.001 to 0.999 | 0.001 to 0.999 | 0.001 to 0.999 | 0.014 | 0.001 to 0.999 | –
4 | COC[C@H]1C[C@@H](c2ncc(-c3ccc4c(c3)COc3cc5c(cc3-4)CCc3nc([C@@H]4CCCN4C(=O)[C@@H](NC(=O)OC)C(C)C)[nH]c3-5)[nH]2)N(C(=O)[C@H](NC(=O)OC)c2ccccc2)C1 [Example 606] | – | – | 0.001 to 0.999 | – | – | 0.001 to 0.999 | 0.001 to 0.999 | 0.001 to 0.999 | 0.034 | 0.001 to 0.999 | 0.001 to 0.99
5 | COC(=O)N[C@H](C(=O)N1[C@@H](C)CC[C@H]1c1nc2ccc3cc4c(cc3c2[nH]1)OCc1cc(-c2cnc([C@@H]3C[C@H](C)CN3C(=O)[C@H](NC(=O)OC)c3ccccc3)[nH]2)ccc1-4)C(C)C [Example 609] | – | – | 0.001 to 0.999 | – | – | 0.001 to 0.999 | 0.001 to 0.999 | 0.001 to 0.999 | 0.005 | 0.001 to 0.999 | 0.001 to 0.99
6 | COC[C@H]1C[C@@H](c2ncc(-c3ccc4c(c3)COc3cc5c(ccc6nc([C@@H]7CC[C@H](C)N7C(=O)[C@@H](NC(=O)OC)C(C)C)[nH]c65)cc3-4)[nH]2)N(C(=O)[C@@H](NC(=O)OC)[C@@H](C)OC)C1 [Example 610] | – | – | 0.001 to 0.999 | – | – | 0.001 to 0.999 | 0.001 to 0.999 | 0.001 to 0.999 | 0.013 | 0.001 to 0.999 | 0.001 to 0.99
7 | COC[C@H]1C[C@@H](c2ncc(-c3cc4c5c(c3)OCc3cc(-c6cnc([C@@H]7C[C@H](C)CN7C(=O)[C@H](NC(=O)OC)c7ccccc7)[nH]6)cc(c3-5)OC4)[nH]2)N(C(=O)[C@@H](NC(=O)OC)C(C)C)C1 [Example 611] | – | – | 0.001 to 0.999 | – | – | 0.001 to 0.999 | 0.001 to 0.999 | 0.001 to 0.999 | 0.013 | 0.001 to 0.999 | 0.001 to 0.99
8 | COC[C@H]1C[C@@H](c2nc3ccc4cc5c(cc4c3[nH]2)OCc2cc(-c3cnc([C@@H]4CC[C@H](C)N4C(=O)[C@@H](NC(=O)OC)C(C)C)[nH]3)ccc2-5)N(C(=O)[C@@H](NC(=O)OC)[C@@H](C)OC)C1 [Example 615] | – | – | 0.001 to 0.999 | – | – | 0.001 to 0.999 | 0.001 to 0.999 | 0.001 to 0.999 | 0.019 | 0.001 to 0.999 | 0.001 to 0.99
